These results are taken from patent US10927078B2, “Modulators of indoleamine 2,3-dioxygenase” (GLAXOSMITHKLINE INTELLECTUAL PROPERTY DEVELOPMENT LIMITED, priority 2017, dated 2021).

The target of the first test is indoleamine 2, 3-dioxygenase (IDO1) (Homo sapiens, UniProt P14902). Briefly: PBMC IDO1 assay (kynurenine via mass spectrometry). It is filed as cell-based.
Sequence of indoleamine 2, 3-dioxygenase (IDO1) (P14902 whole entry): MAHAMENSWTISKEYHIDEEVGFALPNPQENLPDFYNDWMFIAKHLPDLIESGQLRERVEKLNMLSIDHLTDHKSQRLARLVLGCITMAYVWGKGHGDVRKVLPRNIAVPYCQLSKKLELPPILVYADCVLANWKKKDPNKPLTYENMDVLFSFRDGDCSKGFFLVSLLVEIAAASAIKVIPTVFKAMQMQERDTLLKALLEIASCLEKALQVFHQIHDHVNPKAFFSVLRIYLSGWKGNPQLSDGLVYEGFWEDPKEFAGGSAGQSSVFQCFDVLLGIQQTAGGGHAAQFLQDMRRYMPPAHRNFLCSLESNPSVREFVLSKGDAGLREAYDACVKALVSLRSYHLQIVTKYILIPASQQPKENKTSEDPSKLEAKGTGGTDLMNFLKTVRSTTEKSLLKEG
Details: not given
An outline of the steps:
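Human PBMCs (50,000/well) stimulated with IFN-γ 100 ng/ml and LPS 50 ng/ml to induce IDO1, exposed to 11-point 3-fold compound dilutions for 2 days at 37° C. Supernatant kynurenine measured by RapidFire MS relative to internal standard; XC50 from four-parameter fit. Cytotoxicity tracked in parallel by ATP luminescence.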
In the case of `O=C(N[C@H](c1ccccc1)C1CCN(C(=O)Oc2cccnc2F)CC1)c1ccc(Cl)cc1` [Example 31, 2-fluoropyridin-3-yl 4-[(S)-[(4-chlorophenyl)formamido](phenyl)methyl]piperidine-1-carboxylate], the IC50 was 5.01 nM.

Take `COc1ncccc1OC(=O)N1CCC([C@@H](CC(C)C)NC(=O)c2ccc(F)cc2)CC1` [Example 105, (R)-2-methoxypyridin-3-yl 4-(1-(4-fluorobenzamido)-3-methylbutyl)piperidine-1-carboxylate]: the IC50 was 1.26 nM.

For `Cc1ncccc1OC(=O)N1CCC([C@@H](CC(C)C)NC(=O)c2ccc(Cl)cc2)CC1` [Example 104, (R)-2-methylpyridin-3-yl 4-(1-(4-chlorobenzamido)-3-methylbutyl)piperidine-1-carboxylate], the IC50 was 1.26 nM.

Staying with this test, now noted: human PBMC stimulated with IFN-γ and LPS, 2 days, kynurenine by mass spectrometry; recorded as pIC50; read-out: PBMC PXC50_ (converted).
For `Cc1c(F)cccc1OC(=O)N1CCC([C@@H](C)NC(=O)c2ccc(Cl)s2)CC1` [Example 36, 3-fluoro-2-methylphenyl 4-[(1R)-1-[(5-chlorothiophen-2-yl)formamido]ethyl]piperidine-1-carboxylate], the IC50 was 6.31 nM.

In the case of `Cc1ncnc(C)c1OC(=O)N1CCC([C@@H](CC(C)C)NC(=O)c2ccc(Cl)cc2)CC1` [Example 107, (R)-4,6-dimethylpyrimidin-5-yl 4-(1-(4-chlorobenzamido)-3-methylbutyl)piperidine-1-carboxylate], the IC50 is 1.58 nM.

Consider `N#Cc1ccc(C(=O)NC(c2ccccc2)C2CCN(C(=O)Oc3ccccc3)CC2)nc1` (centres unmarked) [Example 89, phenyl 4-{[(5-cyanopyridin-2-yl)formamido](phenyl)methyl}piperidine-1-carboxylate], for which the IC50 is 631 nM.

In the case of `CC(C)(C)OC(=O)N1CCC(C(NC(=O)c2cccc3cc[nH]c23)c2ccccc2)CC1` (centres unmarked) [Example 85, tert-butyl 4-{[(1H-indol-7-yl)formamido](phenyl)methyl}piperidine-1-carboxylate], the IC50 was 631 nM.

`CC(C)(C)OC(=O)N1CCC(C(NC(=O)c2cccnc2)c2ccccc2)CC1` (centres unmarked) [Example 102, tert-butyl 4-{phenyl[(pyridin-3-yl)formamido]methyl}piperidine-1-carboxylate]: the IC50 was 5010 nM.

Turning to `Cc1ccc(C(=O)NC(C2CC2)C2CCN(C(=O)Oc3c(C)ncnc3C)CC2)s1` (stereo in doubt) [Example 113, (S)-4,6-dimethylpyrimidin-5-yl 4-(cyclopropyl(5-methylthiophene-2-carboxamido)methyl)piperidine-1-carboxylate], the IC50 is 12.6 nM.

With `CC(C)C[C@@H](NC(=O)c1ccc(Cl)s1)C1CCN(C(=O)Oc2ccccc2)CC1` [Example 8, phenyl 4-[(1R)-1-[(5-chlorothiophen-2-yl)formamido]-3-methylbutyl]piperidine-1-carboxylate], the IC50 is 2 nM.

As to `O=C(NC(C1CC1)C1CCN(C(=O)Oc2ccnc(F)c2)CC1)c1ccc(F)cc1` (centres unmarked) [Example 71, 2-fluoropyridin-4-yl 4-{cyclopropyl[(4-fluorophenyl)formamido]methyl}piperidine-1-carboxylate], the IC50 is 158 nM.

For the compound `COc1nccc(OC(=O)N2CCC(C(CC(C)C)NC(=O)c3ccc(F)cc3)CC2)c1F` (centres unmarked) [Example 60, 3-fluoro-2-methoxypyridin-4-yl 4-{1-[(4-fluorophenyl)formamido]-3-methylbutyl}piperidine-1-carboxylate], the IC50 was 50.1 nM.

Turning to `CC(C)CC(NC(=O)c1ccc(F)cc1)C1CCN(C(=O)Oc2ccc(Cl)cc2)CC1` (centres unmarked) [Example 59, 4-chlorophenyl 4-{1-[(4-fluorophenyl)formamido]-3-methylbutyl}piperidine-1-carboxylate], the IC50 is 50.1 nM.

Turning to `CC(C)CC(NC(=O)c1ccc(F)cc1)C1CCN(C(=O)Oc2ccnc(F)c2F)CC1` (centres unmarked) [Example 48, 2,3-difluoropyridin-4-yl 4-{1-[(4-fluorophenyl)formamido]-3-methylbutyl}piperidine-1-carboxylate], the IC50 is 10 nM.

`Cc1c(F)cccc1OC(=O)N1CCC([C@@H](C)NC(=O)c2ccc(Cl)cc2)CC1` [Example 68, 3-fluoro-2-methylphenyl 4-[(1R)-1-[(4-chlorophenyl)formamido]ethyl]piperidine-1-carboxylate]: the IC50 is 126 nM.

Turning to `CC(C)CC(NC(=O)c1ccc(F)cc1)C1CCN(C(=O)Oc2cccc(C#N)c2F)CC1` (centres unmarked) [Example 41, 3-cyano-2-fluorophenyl 4-{1-[(4-fluorophenyl)formamido]-3-methylbutyl}piperidine-1-carboxylate], the IC50 is 7.94 nM.

In the case of `C[C@@H](NC(=O)c1ccc(Cl)s1)C1CCN(C(=O)Oc2ccccc2)CC1` [Example 38, phenyl 4-[(1R)-1-[(5-chlorothiophen-2-yl)formamido]ethyl]piperidine-1-carboxylate], the IC50 is 7.94 nM.

Regarding `Cc1c(F)cccc1OC(=O)N1CCC([C@H](C)NC(=O)c2ccc(Cl)s2)CC1` [Example 92, 3-fluoro-2-methylphenyl 4-[(1S)-1-[(5-chlorothiophen-2-yl)formamido]ethyl]piperidine-1-carboxylate], the IC50 was 631 nM.

For `NC(=O)c1ccc(C(=O)NC(c2ccccc2)C2CCN(C(=O)Oc3ccccc3)CC2)nc1` (centres unmarked) [Example 103, phenyl 4-{[(5-carbamoylpyridin-2-yl)formamido](phenyl)methyl}piperidine-1-carboxylate], the IC50 was 10000 nM.

As to `CC(C)C[C@H](NC(=O)c1ccc(Cl)cc1)C1CCN(C(=O)Oc2ccccc2)CC1` [Example 67, phenyl 4-[(1S)-1-[(4-chlorophenyl)formamido]-3-methylbutyl]piperidine-1-carboxylate], the IC50 is 100 nM.

In the case of `COc1c(F)cccc1OC(=O)N1CCC([C@@H](CC(C)C)NC(=O)c2ccc(F)cc2)CC1` [Example 106, (R)-3-fluoro-2-methoxyphenyl 4-(1-(4-fluorobenzamido)-3-methylbutyl)piperidine-1-carboxylate], the IC50 was 1.58 nM.

For `COc1ccc(C(=O)NC(c2ccccc2)C2CCN(C(=O)Oc3ccccc3)CC2)cc1F` (centres unmarked) [Example 57, phenyl 4-{[(3-fluoro-4-methoxyphenyl)formamido](phenyl)methyl}piperidine-1-carboxylate], the IC50 was 39.8 nM.

Take `O=C(NC(c1ccncc1)C1CCN(C(=O)Oc2ccccn2)CC1)c1ccc(F)cc1` (centres unmarked) [Example 96, pyridin-2-yl 4-{[(4-fluorophenyl)formamido](pyridin-4-yl)methyl}piperidine-1-carboxylate]: the IC50 is 1260 nM.

As for `CC(C)C[C@@H](NC(=O)c1ccc(Cl)cc1)C1CCN(C(=O)Oc2ccccc2)CC1` [Example 21, phenyl 4-[(1R)-1-[(4-chlorophenyl)formamido]-3-methylbutyl]piperidine-1-carboxylate], the IC50 is 3.98 nM.

Take `CC(C)CC(NC(=O)c1ccc(Cl)s1)C1CCN(C(=O)Oc2ccccc2)CC1` (centres unmarked) [Example 16, phenyl 4-{1-[(5-chlorothiophen-2-yl)formamido]-3-methylbutyl}piperidine-1-carboxylate]: the IC50 was 3.16 nM.

`Cc1cccc(OC(=O)N2CCC(C(CC(C)C)NC(=O)c3ccc(F)cc3)CC2)c1C` (centres unmarked) [Example 40, 2,3-dimethylphenyl 4-{1-[(4-fluorophenyl)formamido]-3-methylbutyl}piperidine-1-carboxylate]: the IC50 was 7.94 nM.

Another test relates to conversion of T cells into CD4+FoxP3+ Tregs.
Test: not given
To be noted: co-culture of DCs and naive CD4+CD25- T cells; cited from earlier work.
As to `NS(=O)(=O)NCCNc1nonc1C(=NO)Nc1ccc(F)c(Br)c1` [INCB204360], the “conversion of T cells into CD4+FoxP3+ Tregs” value was “blocked the conversion”.

A further test has as its system PAN02 pancreatic cells.
Test: not given
The settings on record: immunocompetent mice, orally dosed; cited from earlier work.
Consider `NS(=O)(=O)NCCNc1nonc1C(=NO)Nc1ccc(F)c(Br)c1` [INCB204360], for which the “inhibition of tumor growth” value was “significant dose-dependent inhibition of tumor growth”.

The test is the same for the next values; noted with them: tumor implanted in immune-deficient mice, orally dosed; cited from earlier work.
In the case of `NS(=O)(=O)NCCNc1nonc1C(=NO)Nc1ccc(F)c(Br)c1` [INCB204360], the “effect against the same tumor” value is recorded as “without effect”.
